Experimental data as given in BigSolDB 2.1.

COCC(=O)Nc1c(I)c(C(=O)NCC(O)CO)c(I)c(C(=O)N(C)CC(O)CO)c1I (stereo not given)
solubility (mole fraction)
Settings	273.15 K	278.15 K	283.15 K	288.15 K	293.15 K	298.15 K	303.15 K	308.15 K	313.15 K	318.15 K
in DMF	0.00368	0.0038	0.00394	0.00409	0.00427	0.00446	0.00467	0.0049	0.00517	0.00544
in acetone	3.54e-05	4.29e-05	5.29e-05	6.52e-05	7.88e-05	9.34e-05	0.00011	0.000128	0.000149	0.000171
in ethanol	0.000152	0.000178	0.000215	0.000254	0.000296	0.000339	0.000384	0.000437	0.000495	0.000558
in ethyl acetate	1.36e-05	2.01e-05	2.74e-05	3.57e-05	4.52e-05	5.65e-05	6.84e-05	8.46e-05	0.000101	0.000127
in isopropanol	5.1e-05	6.23e-05	7.52e-05	9.01e-05	0.000108	0.000128	0.00015	0.000177	0.000203	0.000233
in methanol	0.000236	0.000282	0.000349	0.000419	0.000496	0.000576	0.000666	0.00077	0.00088	0.000997
in toluene	9.9e-06	1.08e-05	1.19e-05	1.31e-05	1.43e-05	1.56e-05	1.69e-05	1.83e-05	1.97e-05	2.12e-05
